# Results: article PMC11859423, “Fluorescent Probes to Image the KCa3.1 Channel in Tumor Cells” (Pharmaceutics, 2025)
# Where “and” joins values, the source holds several entries; their conditions need not be identical. Equal values may be shown once. Entries after “also recorded” stand apart in the source; their conditions may differ. Read-outs that look alike come from different tables or passages of the source.
# Experiments:
# [1] = target: T1, KCa3.1 channel in A549-3R cells (Homo sapiens, UniProt O15554); experiment: Staining of fixed A549-3R tumor cells (Protocol 1), fluorescence microscopy; assay type: cell-based; settings: 10 µM in PBS, 10 min, 4 °C, Protocol 1
# T1 construct: the non-small cell lung cancer cell line A549-3R with a high expression of the KCa3.1 channel was employed; endogenous in cells; host or cells: A549-3R cells
# Method: For the fixation of the cells, the DMEM medium was removed from the glass bottom dish after incubation for 24 h, and the cells were washed with 1 mL of PBS. Subsequently, 1 mL of 4% paraformaldehyde in PBS solution was added to the glass bottom dish and the mixture was incubated for 30 min at room temperature. Thereafter, the cells were washed five times with 1 mL of PBS and used for the cell staining experiments.
# After fixation of the cells (Section 2.10.2), 300 µL of the 10 µM staining solution was added to the glass bottom dish. The cells were incubated for 10 min at 4 °C in a dark chamber. After incubation, the cells were washed five times with 1 mL of PBS and used subsequently for fluorescence microscopy.
# An Axiovert 200 inverted microscope (Carl Zeiss AG, Jena, Germany) with a ×100 oil immersion objective and a digital camera (SPOT RT SE from Diagnostic Instruments Inc., Livingston, UK) were used. The camera was controlled by MetaVue software (version 6.3r6, Visitron, Germany). Two different filter sets were employed, the FITC filter set (Carl Zeiss Filter Set 10 bandwidth excitation filter 450–490, color splitter 510, bandpass filter 515–565) and the TRITC filter set (Carl Zeiss Filter Set 15, bandpass excitation filter 546/12, dichroic mirror 580, emission filter Long Pass 590).
# Using the free imaging software ImageJ (1.53f51, NIH, USA), squares with an edge length of 50 × 50 pixels, corresponding to an area of 9 µm^2, were randomly placed in a cell and signals with Full Width at Half Maximum (FWHM) of ≤5 pixels (~300 nm) were counted as a KCa3.1 channel. For the evaluation, 7 squares were analyzed.
# For the staining experiments, the non-small cell lung cancer cell line A549-3R with a high expression of the KCa3.1 channel was employed. An optimized staining protocol (Protocol 1) described previously was followed to analyze the imaging properties of the fluorescent probes. In brief, the 10 µM solution of the senicapoc–dye conjugate in PBS was added to adherent A549-3R cells in a glass bottom dish and the set-up was incubated for 10 min at 4 °C in a dark chamber. After careful washing, the cells were analyzed with a fluorescence microscope.
# The images were analyzed with respect to size and density of the fluorescent dots. For this purpose, a square with a size of 50 × 50 pixels was randomly placed on the cell images using ImageJ. The intensities of the signals within the square were analyzed to calculate the Full Width at Half Maximum (FWHM) for each selected dot, which represents a measure for the signal size. For the accurate representation of a single KCa3.1 channel, the FWHM should be in the range of five pixels. Signals with a FWHM of ≤5 pixels within the square were regarded as labeled KCa3.1 channels and the number of identified channels was used to determine the density of the ion channels on the cells (Figure S8, Supplementary Materials).
# [2] = logP by HPLC retention time correlation; assay type: physicochemical; settings: standardized reversed phase HPLC system
# Method: The logP values were recorded using HPLC analysis. Thus, the retention time of the test compound in a standardized reversed phase HPLC system is correlated with the retention times of compounds with known logP values.
# In addition to the logD7.4 values, the logP values of the fluorescent probes were recorded by HPLC, i.e., after calibration of the method, the retention times were correlated with the logP values or the compounds [33]. […] Fluorescein-labeled ligands 21a and 21b are considerably more polar than the corresponding bodipy-labeled senicapoc derivatives.
# [3] = UV-Vis absorption and time-resolved photoluminescence spectroscopy; assay type: physicochemical
# Method: All solvents used were of spectrometric grade (Uvasol®). UV-visible absorption spectra were measured using a Shimadzu UV–VIS spectrophotometer (UV-3600i). Photoluminescence quantum yields were measured with a Hamamatsu Photonics absolute PL quantum yield measurement system (C9920-02) equipped with a L9799-01 CW Xe light source (150 W), a monochromator, a C7473 photonic multi-channel analyzer, an integrating sphere and employing U6039-05 software, version 3.6.0. (Hamamatsu Photonics, Ltd., Shizuoka, Japan). Steady-state excitation and emission spectra were recorded on a FluoTime 300 spectrometer from PicoQuant equipped with a 300 W ozone-free Xe lamp (200–1100 nm), a 10 W Xe-flash lamp (200–1100 nm, pulse width ca. 1 µs) with repetition rates of 1–300 Hz, a double-grating excitation monochromator (Czerny–Turner type, grating with 1200 lines/mm, blaze wavelength: 300 nm), diode lasers (pulse width < 20 ps) operated by a computer-controlled laser driver PDL-828 “Sepia II” (repetition rate up to 80 MHz, burst mode for slow and weak decays), two emission monochromators (Czerny–Turner, selectable between double-grating blazed at 500 nm with 2.7 nm/mm dispersion and 1200 lines/mm, or single-grating blazed at 1250 nm with 5.4 nm/mm dispersion and 600 lines/mm) with adjustable slit width between 25 μm and 7 mm. Glam–Thompson polarizers for excitation (after the Xe-lamps) and emission (after the sample) were used. Different sample holders (Peltier-cooled mounting unit ranging from −15 to 110 °C or an adjustable front-face sample holder), along with two detectors (namely a PMA Hybrid-07 from PicoQuant with transit time spread FWHM < 50 ps, 200–850 nm, or a H10330C-45-C3 NIR detector with transit time spread FWHM 0.4 ns, 950–1400 nm from Hamamatsu) were used. Steady-state spectra and photoluminescence lifetimes were recorded in TCSPC mode by a PicoHarp 300 (minimum base resolution 4 ps) or in MCS mode by a TimeHarp 260 (where up to several ms can be traced). Emission and excitation spectra were corrected for source intensity (lamp and grating) by standard correction curves. For samples with lifetimes in the ns order, an instrument response function calibration (IRF) was performed using a diluted Ludox® dispersion. Lifetime analysis was performed using the commercial EasyTau 2 software, version 2.3. (PicoQuant, Berlin, Germany). The quality of the fit was assessed by minimizing the reduced chi squared function (χ^2) and visual inspection of the weighted residuals and their autocorrelation.
# Fluorescence microscopy was used for the analysis of KCa3.1 channel labeling of cells with fluorescent dyes. Therefore, the photophysical properties of fluorescently labeled senicapoc derivatives 15a, 21a, and 22 were determined. Since the fluorophores are separated from the rest of the molecule by a linker, the photophysical properties could be recorded using azide precursors 6a, 6b, and 7a as well.
# [4] = cited from earlier work; for Absorption λmax / Emission λmax / Stokes Shift / ΦF absolute quantum yield / τ photoluminescence lifetime: 298 K
# [5] = logD7.4 by micro shake flask method (n-octanol / MOPS buffer pH 7.4, LC-MS); assay type: physicochemical; settings: read-out: logD7.4 ± SD (Micro Shake Flask)
# Method: The logD7.4 values were recorded using the micro shake flask method. In this method, the test compound is distributed between n-octanol and MOPS buffer pH 7.4, and the amount of the compound in the buffer layer is determined by mass spectrometry.
# The new fluorescent dyes were designed to increase the polarity and reduce the non-specific labeling of lipophilic membranes of cells. Moreover, a higher polarity should lead to increased water solubility and thus improved handling of the dyes. The logD7.4 value was recorded as a measure of the polarity/lipophilicity using our recently published micro-shake flask method. According to this method, the amount of compound in the aqueous 3-morpholinopropanesulfonic acid (MOPS) buffer pH 7.4 was determined by LC-MS [31, 32].
# [6] = measured in CH3CN, c = 10^−5 M, CH2CH2O linker instead of CH2CH2OCH2CH2O linker
# [7] = general property stated without reference
# [8] = solution (CH2Cl2 or CH3CN), c = 10^−5 M, 298 K
smiles,measurement,setting,value
"CCC1=C(C)C2=C(CCCCn3cc(COc4ccc(C(C(N)=O)(c5ccccc5)c5ccc(F)cc5)cc4)nn3)c3c(C)c(CC)c(C)n3[B-](F)(OC)[N+]2=C1C (stereo not drawn) [16b, 2-[4-({1-[4-(2,6-Diethyl-4-fluoro-4-methoxy-1,3,5,7-tetramethyl-4-bora-3a,4a-diaza-s-indacen-8-yl)butyl]-1,2,3-triazol-4-yl}methoxy)phenyl]-2-(4-fluorophenyl)-2-phenylacetamide]",staining pattern of fixed A549-3R tumor cells,[1],unspecific staining; also recorded: unspecific labeling
same,chromatographic logP,[2],5.4
"CCC1=C(C)C2=C(c3ccc(OCCOCCn4cc(COc5ccc(C(C(N)=O)(c6ccccc6)c6ccc(F)cc6)cc5)nn4)cc3)c3c(C)c(CC)c(C)n3[B-](F)(F)[N+]2=C1C (stereo not drawn) [9b, 2-{4-[(1-{2-[4-(2,6-Diethyl-4,4-difluoro-1,3,5,7-tetramethyl-4-bora-3a,4a-diaza-s-indacen-8-yl)phenoxy]ethoxyethyl}-1,2,3-triazol-4-yl)methoxy]phenyl}-2-(4-flluorophenyl)-2-phenylacetamide]",staining pattern of fixed A549-3R tumor cells,[1],unspecific staining; also recorded: unspecific labeling
same,chromatographic logP,[2],6.7
"CCC1=C(C)C2=C(c3ccc(OCCOCCN=[N+]=[N-])cc3)c3c(C)c(CC)c(C)n3[B-](F)(F)[N+]2=C1C [6b, 8-[4-(2-(2-Azidoethoxy)ethoxy)phenyl]-2,6-diethyl-4,4-difluoro-1,3,5,7-tetramethyl-4-bora-3a,4a-diaza-s-indacene]",increase of absorption and emission maxima by two ethyl moieties at the bodipy core,[3]; 6b compared with 6a,23 nm
same,Absorption λmax,[4]; [6],524 nm
same,Emission λmax,[4]; [6],537 nm
same,Stokes Shift,[4]; [6],13 nm
same,ΦF absolute quantum yield,[4]; [6],0.81 ± 0.02
same,τ photoluminescence lifetime,[4]; [6],6.32 ± 0.05 ns
CC1=CC(C)=[N+]2C1=C(c1ccc(OCCOCCN=[N+]=[N-])cc1)c1c(C)cc(C)n1[B-]2(F)F [6a],Absorption λmax,"[4]; CH2Cl2, c = 10^−5 M",501 nm
same,Emission λmax,"[4]; CH2Cl2, c = 10^−5 M",515 nm
same,Stokes Shift,"[4]; CH2Cl2, c = 10^−5 M",14 nm
same,ΦF absolute quantum yield,"[4]; CH2Cl2, c = 10^−5 M",0.48 ± 0.02
same,τ photoluminescence lifetime,"[4]; CH2Cl2, c = 10^−5 M",3.80 ± 0.02 ns
CO[B-]1(F)n2c(C)cc(C)c2C(c2ccc(OCCOCCN=[N+]=[N-])cc2)=C2C(C)=CC(C)=[N+]21 (stereo not drawn) [7a],Absorption λmax,"[4]; CH2Cl2, c = 10^−5 M",501 nm
same,Emission λmax,"[4]; CH2Cl2, c = 10^−5 M",516 nm
same,Stokes Shift,"[4]; CH2Cl2, c = 10^−5 M",15 nm
same,ΦF absolute quantum yield,"[4]; CH2Cl2, c = 10^−5 M",0.43 ± 0.02
same,τ photoluminescence lifetime,"[4]; CH2Cl2, c = 10^−5 M",3.50 ± 0.01 ns
"O=C1OC2(c3ccc(O)cc3Oc3cc(O)ccc32)c2ccccc21 [fluorescein, reference compound]",absorption maximum λmax,[4]; [7],485 nm
same,emission maximum λmax,[4]; [7],514 nm
"NC(=O)C(c1ccccc1)(c1ccc(F)cc1)c1ccc(OCCOCCOCCOCCNC(=S)Nc2ccc3c(c2)C(=O)OC32c3ccc(O)cc3Oc3cc(O)ccc32)cc1 (stereo not drawn) [21b, 2-(4-{12-[3-(3′,6′-Dihydroxy-3-oxo-3H-spiro[[2]benzofuran-1,9′-xanthen]-5-yl)thioureido]-1,4,7,10-tteraoxadodecan-1-yl}phenyl)-2-(4-fluorophenyl)-2-phenylacetamide]",staining pattern of fixed A549-3R tumor cells,[1],A weak green fluorescence of the membrane and an intense staining of the nucleus
same,chromatographic logP,[2]; HPLC at pH 6.0,1.3
"CC1=CC(C)=[N+]2C1=C(CCCCn1cc(COc3ccc(C(C(N)=O)(c4ccccc4)c4ccc(F)cc4)cc3)nn1)c1c(C)cc(C)n1[B-]2(F)F (stereo not drawn) [15a, 2-[4-({1-[4-(4,4-Difluoro-1,3,5,7-tetramethyl-4-bora-3a,4a-diaza-s-indacen-8-yl)butyl]-1,2,3-triazol-4-yl}methoxy)phenyl]-2-(4-fluorophenyl)-2-phenylacetamide]",quantum yield,[3]; see Table 2,96%
same,Absorption λmax,[3]; [8],501 nm
same,Emission λmax,[3]; [8],513 nm
same,Stokes Shift,[3]; [8],12 nm
same,ΦF absolute quantum yield,[3]; [8],0.96 ± 0.04
same,τ photoluminescence lifetime,[3]; [8],5.77 ns and 5.77 ± 0.02 ns
same,staining pattern of fixed A549-3R tumor cells,[1],unspecific staining; also recorded: unspecific labeling
same,chromatographic logP,[2],4.8
"CO[B-]1(F)n2c(C)cc(C)c2C(CCCCn2cc(COc3ccc(C(C(N)=O)(c4ccccc4)c4ccc(F)cc4)cc3)nn2)=C2C(C)=CC(C)=[N+]21 (stereo not drawn) [16a, 2-[4-({1-[4-(4-Fluoro-4-methoxy-1,3,5,7-tetramethyl-4-bora-3a,4a-diaza-s-indacen-8-yl)butyl]-1,2,3-triazol-4-yl}methoxy)phenyl]-2-(4-fluorophenyl)-2-phenylacetamide]",logD,[5],> 5
same,staining pattern of fixed A549-3R tumor cells,[1],unspecific staining; also recorded: unspecific labeling
same,chromatographic logP,[2],4
"CCC1=C(C)C2=C(c3ccc(OCCOCCN=[N+]=[N-])cc3)c3c(C)c(CC)c(C)n3[B-](F)(OC)[N+]2=C1C (stereo not drawn) [7b, 8-{4-[2-(2-Azidoethoxy)ethoxy]phenyl}-2,6-diethyl-4-fluoro-4-methoxy-1,3,5,7-tetramethyl-4-bora-3a,4a-diaza-s-indacene]",staining pattern of fixed A549-3R tumor cells,[1],a punctate staining pattern characteristic for the interaction with the ion channel was not observed; also recorded: high fluorescence intensity inside and around the nucleus
